Patent US20260226086A1, “COMPOUNDS AND COMPOSITIONS AS STAT3 DEGRADERS AND USES THEREOF” (REGENTS OF THE UNIVERSITY OF MICHIGAN, priority 2023, published 2026)

What was measured:
STAT3 = target: T1, STAT3 (Homo sapiens, UniProt P40763); experiment: HiBiT assay, STAT3 degradation in STAT3-HiBiT KI HeLa cells; format: cell-based; details: for DC50 / Dmax at 1 µM: 24 h; for DC50: read-out: STAT3 Degradation (HeLa 24 h HiBit) DC50
T1 construct: This cell line is a clone created by using CRISPR-Cas9 to fuse HiBiT to the 3′ end of STAT3 in HeLa cells; host or cells: STAT3-HiBiT KI HeLa cell line (CRISPR-Cas9 knock-in clone)
Protocol: STAT3 degradation may be determined by HiBiT assay. STAT3-HiBiT KI HeLa cell line, which is a clone created by using CRTISPR-Cas9 to fuse HiBiT to the 3′ end of STAT3 in HeLa cells, may be used for this assay. In a typical procedure, cells seeded at certain amounts of cells (e.g., 20000 cells) per well are incubated with serially diluted compounds for certain period of time (e.g., 24 hours) under certain conditions (e.g., at 37° C. with 5% CO2). At the end of treatment, Nano-Glo HiBiT Lytic Detection reagents is added to the wells and luminescence is acquired on TECAN SPARK plate reader. Untreated cells are used as control. Data points are fit with a four-parameter equation to generate a concentration-response curve. IC50 values are calculated using a nonlinear regression analysis of the mean±SD from triplicate.
STAT3-HiBiT KI HeLa cell line was purchased from Promega. This cell line is a clone created by using CRISPR-Cas9 to fuse HiBiT to the 3′ end of STAT3 in HeLa cells. DMEM medium and FBS were purchased from Gibco/Thermo Fisher Scientific. STAT3 degradation was determined based on quantification of luminescent signal using Nano-Glo HiBiT Lytic Detection System. In a typical procedure, cells seeded at 20000 cells per well in 96-well white plates (Corning) were incubated with serially diluted compounds for 24 hours at 37° C. with 5% CO2. At the end of treatment, Nano-Glo HiBiT Lytic Detection reagents was added to the wells and luminescence was acquired on TECAN SPARK plate reader. Untreated cells were used as control. Data points were fit with a four-parameter equation to generate a concentration-response curve. IC50 values were calculated using a nonlinear regression analysis of the mean±SD from triplicate.

SUP-M2 cells = experiment: CellTiter-Glo 2.0 cell viability assay, SUP-M2; format: cell-based; details: SUP-M2, 96 h, 4 days
Protocol: For example, cell viability may be determined by CellTiter-Glo 2.0 Cell Viability Assay. In a typical procedure, cells seeded at certain amounts of cells (e.g., 1000 cells) per well are incubated with serially diluted compounds for certain period (e.g., 4 days) under certain conditions (e.g., at 37° C. with 5% CO2). At the end of treatment, CellTiter-Glo 2.0 is added to the wells and luminescence is acquired on TECAN SPARK plate reader. Untreated cells are used as control, Data points are fit with an equation (e.g., a four-parameter equation) to generate a concentration-response curve. IC50 values are calculated using a nonlinear regression analysis of the mean±SD from triplicate.
SU-DHL-1 and SUP-M2 cell viability was determined by CellTiter-Glo 2.0 Cell Viability Assay (Promega). SU-DHL-1 cell line was purchased from ATCC (Manassas, VA) and SUP-M2 (ACC-509) was purchased from DSMZ (Germany). RPMI 1640 medium and fetal bovine serum (FBS) were purchased from Gibco/Thermo Fisher Scientific. In a typical procedure, cells seeded at 1000 cells per well in 384-well white plates (Corning) were incubated with serially diluted compounds for 4 days at 37° C. with 5% C02. At the end of treatment, CellTiter-Glo 2.0 was added to the wells and luminescence was acquired on TECAN SPARK plate reader. Untreated cells were used as control. Data points were fit with a four-parameter equation to generate a concentration-response curve. IC50 values were calculated using a nonlinear regression analysis of the mean±SD from triplicate.

T1 sequence (P40763 whole entry): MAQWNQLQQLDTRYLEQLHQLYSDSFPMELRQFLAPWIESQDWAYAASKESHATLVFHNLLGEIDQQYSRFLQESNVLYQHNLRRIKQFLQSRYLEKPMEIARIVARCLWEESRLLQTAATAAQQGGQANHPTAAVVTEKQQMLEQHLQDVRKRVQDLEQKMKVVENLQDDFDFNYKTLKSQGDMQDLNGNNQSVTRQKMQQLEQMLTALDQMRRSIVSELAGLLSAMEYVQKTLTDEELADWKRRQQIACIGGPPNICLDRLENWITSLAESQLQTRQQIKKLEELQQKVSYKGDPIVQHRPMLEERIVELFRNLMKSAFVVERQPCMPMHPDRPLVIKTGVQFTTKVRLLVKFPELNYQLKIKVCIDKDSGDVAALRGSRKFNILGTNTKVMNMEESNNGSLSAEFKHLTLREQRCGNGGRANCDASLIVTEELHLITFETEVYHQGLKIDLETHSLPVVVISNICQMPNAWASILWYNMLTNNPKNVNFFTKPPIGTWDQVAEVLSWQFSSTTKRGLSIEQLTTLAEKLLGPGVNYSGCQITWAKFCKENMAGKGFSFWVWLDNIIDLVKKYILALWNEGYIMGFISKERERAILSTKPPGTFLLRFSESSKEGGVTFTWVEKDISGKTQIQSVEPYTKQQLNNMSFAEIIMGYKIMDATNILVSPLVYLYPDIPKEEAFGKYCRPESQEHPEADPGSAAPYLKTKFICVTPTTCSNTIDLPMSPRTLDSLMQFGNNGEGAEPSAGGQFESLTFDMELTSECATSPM

COCCOCCOC[C@H](NC(=O)[C@@H]1C[C@@H](O)CN1C(=O)[C@@H](n1cc(CCCc2cccc(OC[C@H](CCC(N)=O)NC(=O)[C@@H]3CC[C@@H]4CCN(C(C)=O)C[C@H](NC(=O)c5cc6cc(C(=O)P(=O)(O)O)ccc6[nH]5)C(=O)N43)c2Cl)nn1)C(C)(C)C)c1ccc(-c2scnc2C)cc1 [Compound 41, (2-(((5S,8S,10aR)-3-acetyl-8-(((S)-5-amino-1-(2-chloro-3-(3-(1-((S)-1-((2S,4R)-4-hydroxy-2-(((R)-2-(2-(2-methoxyethoxy)ethoxy)-1-(4-(4-methylthiazol-5-yl)phenyl)ethyl)carbamoyl)pyrrolidin-1-yl)-3,3-dimethyl-1-oxobutan-2-yl)-1H-1,2,3-triazol-4-yl)propyl)phenoxy)-5-oxopentan-2-yl)carbamoyl)-6-oxodecahydropyrrolo[1,2-a][1,5]diazocin-5-yl)carbamoyl)-1H-indole-5-carbonyl)phosphonic acid]
DC50 (STAT3): 10 to 100 nM | STAT3 Degradation (HeLa 24 h HiBit) Dmax (@1 μM) (STAT3; @1 μM): A (A (>=80%)) | IC50 (SUP-M2 cells): 10 to 100 nM

CCS(=O)(=O)c1ccc(CNC(=O)[C@H](CCC(N)=O)NC(=O)[C@@H]2CC[C@@H]3CCN(C(=O)CCCCc4cn([C@@H](C(=O)N5C[C@H](O)C[C@H]5C(=O)N[C@H](C)c5ccc(-c6scnc6C)cc5)C5CCN(C)CC5)nn4)C[C@H](NC(=O)c4cc5cc(C(=O)P(=O)(O)O)ccc5[nH]4)C(=O)N32)cc1 [Compound 21, (2-(((5S,8S,10aR)-8-(((S)-5-amino-1-((4-(ethylsulfonyl)benzyl)amino)-1,5-dioxopentan-2-yl)carbamoyl)-3-(5-(1-((R)-2-((2S,4R)-4-hydroxy-2-(((R)-1-(4-(4-methylthiazol-5-yl)phenyl)ethyl)carbamoyl)pyrrolidin-1-yl)-1-(1-methylpiperidin-4-yl)-2-oxoethyl)-1H-1,2,3-triazol-4-yl)pentanoyl)-6-oxodecahydropyrrolo[1,2-a][1,5]diazocin-5-yl)carbamoyl)-1H-indole-5-carbonyl)phosphonic acid]
Dmax at 1 µM (STAT3; @1 μM): > 80% | DC50 (STAT3): < 10 nM | IC50 (SUP-M2 cells): < 10 nM

CCS(=O)(=O)c1ccc(CNC(=O)[C@H](CCC(N)=O)NC(=O)[C@@H]2CC[C@@H]3CCN(C(=O)CCCCc4cn([C@@H](C(=O)N5C[C@H](O)C[C@H]5C(=O)N[C@H](C)c5ccc(-c6scnc6C)cc5)C5CCN(C(C)=O)CC5)nn4)C[C@H](NC(=O)c4cc5cc(C(=O)P(=O)(O)O)ccc5[nH]4)C(=O)N32)cc1 [Compound 22, (2-(((5S,8S,10aR)-3-(5-(1-((R)-1-(1-acetylpiperidin-4-yl)-2-((2S,4R)-4-hydroxy-2-(((R)-1-(4-(4-methylthiazol-5-yl)phenyl)ethyl)carbamoyl)pyrrolidin-1-yl)-2-oxoethyl)-1H-1,2,3-triazol-4-yl)pentanoyl)-8-(((S)-5-amino-1-((4-(ethylsulfonyl)benzyl)amino)-1,5-dioxopentan-2-yl)carbamoyl)-6-oxodecahydropyrrolo[1,2-a][1,5]diazocin-5-yl)carbamoyl)-1H-indole-5-carbonyl)phosphonic acid]
Dmax at 1 µM (STAT3; @1 μM): > 80% | DC50 (STAT3): < 10 nM | IC50 (SUP-M2 cells): < 10 nM

CCS(=O)(=O)c1ccc(CNC(=O)[C@H](CCC(N)=O)NC(=O)[C@@H]2CC[C@@H]3CCN(C(=O)CCCCCc4cn([C@@H](C(=O)N5C[C@@H](O)C[C@@H]5C(=O)N[C@@H](C)c5ccc(-c6scnc6C)cc5)C5CCCCC5)nn4)C[C@H](NC(=O)c4cc5cc(C(=O)P(=O)(O)O)ccc5[nH]4)C(=O)N32)cc1 [Compound 28, (2-(((5S,8S,10aR)-8-(((S)-5-amino-1-((4-(ethylsulfonyl)benzyl)amino)-1,5-dioxopentan-2-yl)carbamoyl)-3-(6-(1-((R)-1-cyclohexyl-2-((2R,4S)-4-hydroxy-2-(((S)-1-(4-(4-methylthiazol-5-yl)phenyl)ethyl)carbamoyl)pyrrolidin-1-yl)-2-oxoethyl)-1H-1,2,3-triazol-4-yl)hexanoyl)-6-oxodecahydro-pyrrolo[1,2-a][1,5]diazocin-5-yl)carbamoyl)-1H-indole-5-carbonyl)phosphonic acid]
Dmax at 1 µM (STAT3; @1 μM): > 80% | DC50 (STAT3): < 10 nM

CCS(=O)(=O)c1ccc(CNC(=O)[C@H](CCC(N)=O)NC(=O)[C@@H]2CC[C@@H]3CCN(C(=O)CCCCCc4cn([C@@H](C(=O)N5C[C@@H](O)C[C@@H]5C(=O)N[C@@H](C)c5ccc(-c6scnc6C)cc5)C5CCOCC5)nn4)C[C@H](NC(=O)c4cc5cc(C(=O)P(=O)(O)O)ccc5[nH]4)C(=O)N32)cc1 [Compound 29, (2-(((5S,8S,10aR)-8-(((S)-5-amino-1-((4-(ethylsulfonyl)benzyl)amino)-1,5-dioxopentan-2-yl)carbamoyl)-3-(6-(1-((R)-2-((2R,4S)-4-hydroxy-2-(((S)-1-(4-(4-methylthiazol-5-yl)phenyl)ethyl)carbamoyl)pyrrolidin-1-yl)-2-oxo-1-(tetrahydro-2H-pyran-4-yl)ethyl)-1H-1,2,3-triazol-4-yl)hexanoyl)-6-oxodecahydropyrrolo[1,2-a][1,5]diazocin-5-yl)carbamoyl)-1H-indole-5-carbonyl)phosphonic acid]
Dmax at 1 µM (STAT3; @1 μM): > 80% | DC50 (STAT3): < 10 nM

CC(=O)N1CC[C@H]2CC[C@@H](C(=O)N[C@@H](CCC(N)=O)COc3cccc(CCCc4cn([C@H](C(=O)N5C[C@H](O)C[C@H]5C(=O)N[C@@H](C)c5ccc(-c6scnc6C)cc5)C(C)(C)C)nn4)c3Cl)N2C(=O)[C@@H](NC(=O)c2cc3cc(C(F)(F)P(=O)(O)O)ccc3s2)C1 [Compound 44]
Dmax at 1 µM (STAT3; @1 μM): > 80% | DC50 (STAT3): < 10 nM

CCS(=O)(=O)c1ccc(OC[C@H](CCC(N)=O)NC(=O)[C@@H]2CC[C@@H]3CCN(C(=O)CCCCc4cn([C@H](C(=O)N5C[C@H](O)C[C@H]5C(=O)N[C@@H](C)c5ccc(-c6scnc6C)cc5)C(C)(C)C)nn4)C[C@H](NC(=O)c4cc5cc(C(=O)P(=O)(O)O)ccc5[nH]4)C(=O)N32)cc1 [Compound 34, (2-(((5S,8S,10aR)-8-(((S)-5-amino-1-(4-(ethylsulfonyl)phenoxy)-5-oxopentan-2-yl)carbamoyl)-3-(5-(1-((S)-1-((2S,4R)-4-hydroxy-2-(((S)-1-(4-(4-methylthiazol-5-yl)phenyl)ethyl)carbamoyl)pyrrolidin-1-yl)-3,3-dimethyl-1-oxobutan-2-yl)-1H-1,2,3-triazol-4-yl)pentanoyl)-6-oxodecahydropyrrolo[1,2-a][1,5]diazocin-5-yl)carbamoyl)-1H-indole-5-carbonyl)phosphonic acid]
Dmax at 1 µM (STAT3; @1 μM): 60 to 80% | DC50 (STAT3): 10 to 100 nM

COCCOCCOC[C@H](NC(=O)[C@@H]1C[C@@H](O)CN1C(=O)[C@@H](n1cc(CCCc2cccc(OC[C@H](CCC(N)=O)NC(=O)[C@@H]3CC[C@@H]4CCN(C(C)=O)C[C@H](NC(=O)c5cc6cc(C(=O)P(=O)(O)O)ccc6[nH]5)C(=O)N43)c2Cl)nn1)C(C)(C)C)c1ccc(-c2scnc2C)cc1 [Compound 27, (2-(((5S,8S,10aR)-3-acetyl-8-(((S)-5-amino-1-(2-chloro-3-(3-(1-((S)-1-((2S,4R)-4-hydroxy-2-(((R)-2-(2-(2-methoxyethoxy)ethoxy)-1-(4-(4-methylthiazol-5-yl)phenyl)ethyl)carbamoyl)pyrrolidin-1-yl)-3,3-dimethyl-1-oxobutan-2-yl)-1H-1,2,3-triazol-4-yl)propyl)phenoxy)-5-oxopentan-2-yl)carbamoyl)-6-oxodecahydropyrrolo[1,2-a][1,5]diazocin-5-yl)carbamoyl)-1H-indole-5-carbonyl)phosphonic acid]
Dmax at 1 µM (STAT3; @1 μM): > 80% | DC50 (STAT3): < 10 nM

CCS(=O)(=O)c1ccc(CNC(=O)[C@H](CCC(N)=O)NC(=O)[C@@H]2CC[C@@H]3CCN(C(=O)CCCCCc4cn([C@H](C(=O)N5C[C@H](O)C[C@H]5C(=O)N[C@@H](COCCOCCOC)c5ccc(-c6scnc6C)cc5)C(C)(C)C)nn4)C[C@H](NC(=O)c4cc5cc(C(=O)P(=O)(O)O)ccc5[nH]4)C(=O)N32)cc1 [Compound 26]
Dmax at 1 µM (STAT3; @1 μM): > 80% | DC50 (STAT3): < 10 nM
